Source: patent US5925639A, “Keto amide derivatives useful as farnesyl protein transferase inhibitors” (Schering Corporation, priority 1997, dated 1999)

Experiments:
[1] = molecular target: farnesyl protein transferase (Homo sapiens, UniProt P49354+P49356); assay: FPT IC50 (inhibition of farnesyl protein transferase, in vitro enzyme assay); type: biochemical
Method: (§1) FPT IC50 (inhibition of farnesyl protein transferase, in vitro enzyme assay), COS Cell IC50 (Cell-Based Assay), GGPT IC50 (inhibition of geranylgeranyl protein transferase, in vitro enzyme assay), Cell Mat Assay, and anti-tumor activity (in vivo anti-tumor studies) are determined by the assay procedures described in WO 95/10516.

COS Cell = COS Cell IC50 (Cell-Based Assay)
Method: as §1

IC50 [1]	Structure (SMILES)	IC50 (COS Cell)
7.6 nM	CC(=O)CCCC(=O)N1CCC([C@H]2c3ncc(Br)cc3CCc3cc(Cl)cc(Br)c32)CC1 [Example 4]	10 nM
9.7 nM	CC(CCC(=O)N1CCC([C@H]2c3ncc(Br)cc3CCc3cc(Cl)cc(Br)c32)CC1)=NNC(N)=O [Example 12]	
4.7 nM	O=C(CC/C(=N\O)c1ccccc1)N1CCC([C@H]2c3ncc(Br)cc3CCc3cc(Cl)cc(Br)c32)CC1 [Example 10]	
88 nM	CO/N=C(\CCC(=O)N1CCC([C@H]2c3ncc(Br)cc3CCc3cc(Cl)cc(Br)c32)CC1)c1ccccc1 [Example 11]	
21 nM	O=C(CCC(=O)N1CCC([C@H]2c3ncc(Br)cc3CCc3cc(Cl)cc(Br)c32)CC1)c1ccccc1 [Example 1]	

Second part, the compound before the results:

Structure (SMILES)	IC50 [1]	IC50 (COS Cell)
C/C(CCC(=O)N1CCC([C@H]2c3ncc(Br)cc3CCc3cc(Cl)cc(Br)c32)CC1)=N/O [Example 7]	11 nM	
O=C(C(=O)N1CCC([C@H]2c3ncc(Br)cc3CCc3cc(Cl)cc(Br)c32)CC1)c1ccccc1 [Example 2]	65 nM	
CC(=O)CCC(=O)N1CCC([C@H]2c3ncc(Br)cc3CCc3cc(Cl)cc(Br)c32)CC1 [Example 3]	3.4 nM	54 nM
O=C(/C(=N\O)c1ccccc1)N1CCC([C@H]2c3ncc(Br)cc3CCc3cc(Cl)cc(Br)c32)CC1 [Example 9]	> 150 nM	
CC(=O)C(=O)N1CCC([C@H]2c3ncc(Br)cc3CCc3cc(Cl)cc(Br)c32)CC1 [Example 6]	46 nM	
CC(=O)CC(=O)CCC(=O)N1CCC([C@H]2c3ncc(Br)cc3CCc3cc(Cl)cc(Br)c32)CC1 [Example 5]	9.2 nM	175 nM
CC(CCC(=O)N1CCC([C@H]2c3ncc(Br)cc3CCc3cc(Cl)cc(Br)c32)CC1)=NNC(=O)C(N)=O [Example 13]	6.9 nM	
C/C(CCC(=O)N1CCC([C@H]2c3ncc(Br)cc3CCc3cc(Cl)cc(Br)c32)CC1)=N\O [Example 8]	4.9 nM	52 nM
